Source: the supplement of paper PMC10307832

Tests used:
Experiment in all cases: relative viability (nuclei count vs DMSO), 5 days (fraction); higher = more cells survive
[1] = compound: COc1cc2nccc(Oc3ccc(NC(=O)C4(C(=O)Nc5ccc(F)cc5)CC4)cc3)c2cc1OC [Cabozantinib] + CC(C)C[C@H](NC(=O)[C@H](Cc1ccccc1)NC(=O)c1cnccn1)B(O)O [Bortezomib] (partner 0.002 µM)
Summary of the method: (§1)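 Cells from lung cancer lines were seeded into 1536-well plates and, one day later, dosed by pin tool. Treatments were either a single drug or a fixed dose of an anchor drug with five library-drug doses (not always all listed) in √10 steps. After 5 days, nuclei were stained in a one-step fixation (final 0.05% Triton X-100, 1% formaldehyde, 1 ug/ml Hoechst) and counted on 4× images, and relative viability is the treated-to-vehicle nuclei ratio, as the median of duplicate plates.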

[2] = compound: O[C@@H](COc1cccc2ncccc12)CN1CCN([C@@H]2c3ccccc3[C@@H]3[C@H](c4ccccc42)C3(F)F)CC1 [Zosuquidar] + COc1cc2c(Oc3ccc(NC(=O)C4(C(=O)Nc5ccc(F)cc5)CC4)cc3F)ccnc2cc1OCCCN1CCOCC1 [Foretinib] (partner 0.25 µM)
Summary of the method: as §1

[3] = compound: O[C@@H](COc1cccc2ncccc12)CN1CCN([C@@H]2c3ccccc3[C@@H]3[C@H](c4ccccc42)C3(F)F)CC1 [Zosuquidar] + CS(=O)(=O)CCNCc1ccc(-c2ccc3ncnc(Nc4ccc(OCc5cccc(F)c5)c(Cl)c4)c3c2)o1 [Lapatinib] (partner 2 µM)
Summary of the method: as §1

[4] = compound: O[C@@H](COc1cccc2ncccc12)CN1CCN([C@@H]2c3ccccc3[C@@H]3[C@H](c4ccccc42)C3(F)F)CC1 [Zosuquidar] + C[C@@H](Oc1cc(-c2cnn(C3CCNCC3)c2)cnc1N)c1c(Cl)ccc(F)c1Cl [Crizotinib] (partner 1 µM)
Summary of the method: as §1

Row | Cell Line | relative viability ([1]; first compound 0.02 µM) | relative viability ([1]; first compound 0.06325 µM) | relative viability ([1]; first compound 0.2 µM) | relative viability ([1]; first compound 0.6325 µM) | relative viability ([1]; first compound 2 µM) | relative viability ([2]; first compound 0.01 µM) | relative viability ([2]; first compound 0.03162 µM) | relative viability ([2]; first compound 0.1 µM) | relative viability ([2]; first compound 0.3162 µM) | relative viability ([2]; first compound 1 µM) | relative viability ([3]; first compound 0.01 µM) | relative viability ([3]; first compound 0.03162 µM) | relative viability ([3]; first compound 0.1 µM) | relative viability ([3]; first compound 0.3162 µM) | relative viability ([3]; first compound 1 µM) | relative viability ([4]; first compound 0.01 µM) | relative viability ([4]; first compound 0.03162 µM) | relative viability ([4]; first compound 0.1 µM) | relative viability ([4]; first compound 0.3162 µM) | relative viability ([4]; first compound 1 µM)
1 | NCI-H1915 | 1.01 | 1.02 | 0.971 | 1.01 | 0.979 | 0.951 | 1.11 | 1.07 | 1.12 | 1.13 | 0.988 | 0.996 | 0.953 | 1.05 | 1.01 | 0.868 | 0.938 | 0.887 | 0.882 | 0.909
2 | NCI-H661 | 0.799 | 0.855 | 0.915 | 0.683 | 0.799 | 1.05 | 0.895 | 0.885 | 1.06 | 0.988 | 0.6 | 0.423 | 0.399 | 0.639 | 0.559 | 0.993 | 1.07 | – | 1.05 | 0.906
3 | NCI-H1650 | 0.182 | 0.212 | 0.184 | 0.199 | 0.222 | 1.12 | 1.04 | 1.21 | 1.15 | 1.49 | 0.783 | 0.696 | 0.684 | 1.22 | 0.875 | 0.888 | 1.02 | 0.974 | 1.01 | 1.02
4 | NCI-H647 | 1.17 | 1.17 | 1.19 | 0.893 | 1.13 | 1.21 | 1.13 | 1.32 | 1.27 | 1.02 | 1.04 | 1.13 | 1.03 | 1.13 | 1.14 | 1.03 | 1.09 | 1.03 | 1.14 | 1.1
5 | HCC-366 | 1.06 | 1.13 | 1.1 | 0.953 | 1 | 0.922 | 0.856 | 0.999 | 0.96 | 0.869 | 1.08 | 1.08 | 1.15 | 1.01 | 1.15 | 0.468 | 0.59 | 0.636 | 0.48 | 0.577
6 | NCI-H2087 | 0.863 | 1.04 | 0.702 | 0.661 | 0.815 | 1 | – | 0.992 | 1.21 | 1.12 | 0.931 | 0.776 | 1.06 | 1.19 | 1.19 | 0.839 | 1.05 | 0.817 | 0.915 | 0.836
7 | SK-LU-1 | 1.06 | 1.78 | 1.39 | 0.905 | 1.1 | 0.799 | 0.871 | 0.937 | 0.961 | 0.77 | 0.905 | 0.918 | 1.02 | 0.79 | 1.01 | 0.974 | 0.981 | 1.1 | 0.932 | 0.911
